Test [1] deals with αCOPI-WD40 domain (residues 1-327) (Schizosaccharomyces pombe, UniProt Q96WV5, F197K/I192K/L181K/L185K/L196K). The experiment in a line: biochemical. The test is classed as binding.
The target in test [2] is T1, sarbecovirus spike hepta-peptide, wild type (1267Gly-Val-Lys-Leu-His-Tyr-Thr1273) (SARS-CoV-2).
T1 peptide: GVKLHYT
The experiment in a line: BLI. To be noted: both partners purified.

We go through 14 molecules from paper PMC8825798 (Communications Biology, 2022).

Values joined by “and” are separate entries in the source; they are usually repeats but may differ in a detail not shown here. Identical values can stand only once. Peptide text beside a SMILES is read from it.

As to `CC(C)C[C@H](NC(=O)[C@H](CCCCN)NC(=O)[C@@H](NC(=O)CN)C(C)C)C(=O)N[C@@H](Cc1c[nH]cn1)C(=O)N[C@@H](Cc1ccc(O)cc1)C(=O)N[C@H](C(=O)O)C(C)C` [GVKLHYV] (H-GVKLHYV-OH), the Kd in test [1] (Equilibrium KD) turned out to be 3200 ± 40 nM; in test [1] (Kinetic KD) it was 2060 ± 50 nM. Also, the koff in test [1] (pH 6.5) turned out to be 0.212 ± 0.002 s⁻¹. Also, in test [1] (pH 6.5), the on-rate (kon) is recorded as 102.67 ± 2.61 10^3/Ms.

In the case of `CC(C)C[C@H](NC(=O)[C@H](CCCCN)NC(=O)[C@@H](NC(=O)CN)C(C)C)C(=O)N[C@@H](Cc1c[nH]cn1)C(=O)N[C@@H](C)C(=O)N[C@H](C(=O)O)[C@@H](C)O` [GVKLHAT] (H-GVKLHAT-OH), the dissociation constant (Kd) in test [1] (Equilibrium KD) stood at 3770 ± 340 nM; in test [1] (Kinetic KD), 2320 ± 70 nM. Further, the koff in test [1] (pH 6.5) was 0.28 ± 0.003 s⁻¹. In addition, in test [1] (pH 6.5), the kon is reported as 120.87 ± 3.39 10^3/Ms.

The molecule `CC(C)C[C@H](NC(=O)[C@H](CCCCN)NC(=O)[C@@H](NC(=O)CN)C(C)C)C(=O)N[C@@H](CCCCN)C(=O)N[C@@H](Cc1ccc(O)cc1)C(=O)N[C@H](C(=O)O)[C@@H](C)O` [GVKLKYT] (H-GVKLKYT-OH) came in with a Kd in test [1] (Kinetic KD) of 2710 nM. Also, in test [1] (pH 7.5), the koff came out at 0.184 s⁻¹ and the kon is 67.3 ± 1.45 10^3/Ms.

On to `CC(C)C[C@H](NC(=O)[C@H](CCCCN)NC(=O)[C@@H](NC(=O)CN)C(C)C)C(=O)N[C@@H](Cc1c[nH]cn1)C(=O)N[C@@H](Cc1ccc(O)cc1)C(=O)N[C@@H](C)C(=O)O` [GVKLHYA] (H-GVKLHYA-OH), for which the Kd in test [1] (Equilibrium KD) is 1130 ± 50 nM; in test [1] (Kinetic KD) it was 1140 ± 20 nM. The koff in test [1] (pH 6.5) turned out to be 0.076 ± 0.001 s⁻¹. In addition, the kon in test [1] (pH 6.5) is listed as 66.67 ± 0.80 10^3/Ms.

The molecule `CC(C)C[C@H](NC(=O)[C@H](CCCCN)NC(=O)[C@@H](NC(=O)CN)C(C)C)C(=O)N[C@@H](Cc1c[nH]cn1)C(=O)N[C@@H](Cc1ccc(O)cc1)C(=O)N[C@@H](CCC(=O)O)C(=O)O` [GVKLHYE] (H-GVKLHYE-OH) yielded a Kd in test [1] (Equilibrium KD) of 310 ± 10 nM. In addition, in test [1] (Kinetic KD), binding was characterised by a dissociation constant (Kd) of 380 ± 10 nM. In test [1] (pH 6.5), the koff came to 0.024 ± 0.0003 s⁻¹ and the kon is given as 58.96 ± 0.54 10^3/Ms.

GVALHYT: the “Binding to αCOPI-WD40 (in words)” value in test [1] (pH 6.5) is reported as “abolished binding”.

For GVKLAYT, in test [1] (pH 6.5), the “Binding to αCOPI-WD40 (in words)” value is reported as “abolished binding”.

For the molecule KEVYLHG, the “Binding to αCOPI-WD40 (in words)” value in test [1] (pH 6.5) is listed as “weak binding”.

Take GVALAYT: the “Binding to αCOPI-WD40 (in words)” value in test [1] (pH 6.5) is given as “does not demonstrate any substantial binding”.

For the molecule `CC(C)C[C@H](NC(=O)[C@H](CCCCN)NC(=O)[C@@H](NC(=O)CN)C(C)C)C(=O)N[C@@H](Cc1c[nH]cn1)C(=O)N[C@@H](Cc1ccc(O)cc1)C(=O)N[C@H](C(=O)O)[C@@H](C)O` [GVKLHYT] (H-GVKLHYT-OH), the Kd was 4170 nM and 1400 nM in test [1] (Equilibrium KD); 2750 nM and 950 nM in test [1] (Kinetic KD). Besides, the koff in test [1] (pH 6.5) was found to be 0.145 ± 0.001 s⁻¹; in test [1] (pH 7.5), 0.25 ± 0.003 s⁻¹. The results for the kon in test [1] (pH 6.5) and in test [1] (pH 7.5) were 152.13 ± 3.45 10^3/Ms and 89.96 ± 2.72 10^3/Ms, respectively.

Consider `CC(C)C[C@H](NC(=O)[C@H](CCCCN)NC(=O)[C@@H](NC(=O)CN)C(C)C)C(=O)N[C@@H](Cc1c[nH]cn1)C(=O)N[C@@H](Cc1ccc(O)cc1)C(=O)N[C@@H](CCC(N)=O)C(=O)O` [GVKLHYQ] (H-GVKLHYQ-OH), for which the Kd was 780 ± 40 nM in test [1] (Equilibrium KD) and 1150 ± 10 nM in test [1] (Kinetic KD). In test [1] (pH 6.5), this molecule returned a koff of 0.066 ± 0.001 s⁻¹. Further, the kon in test [1] (pH 6.5) is 60.05 ± 0.75 10^3/Ms.

For the molecule VLKTYHG, the “Binding to αCOPI-WD40 (in words)” value in test [1] (pH 7.5) is listed as “no detectable interaction”.

As to `CC(C)C[C@H](NC(=O)[C@H](CCCCN)NC(=O)[C@@H](NC(=O)CN)C(C)C)C(=O)N[C@@H](Cc1c[nH]cn1)C(=O)N[C@@H](Cc1ccc(O)cc1)C(=O)N[C@@H](CCCNC(=N)N)C(=O)O` [GVKLHYR] (H-GVKLHYR-OH), the Kd in test [1] (Equilibrium KD) amounted to 1730 ± 240 nM; in test [1] (Kinetic KD), 1290 ± 40 nM. In addition, the koff in test [1] (pH 6.5) was found to be 0.177 ± 0.001 s⁻¹.

B1: αCOPI-WD40 domain (residues 1-327) from Schizosaccharomyces pombe (domain or fragment)
chain: MEMLTKFESRSSRAKGVAFHPTQPWILTSLHNGRIQLWDYRMGTLLDRFDGHDGPVRGIAFHPTQPLFVSGGDDYKVNVWNYKSRKLLFSLCGHMDYVRVCTFHHEYPWILSCSDDQTIRIWNWQSRNCIAILTGHSHYVMCAAFHPSEDLIVSASLDQTVRVWDISGLRMKNAAPVSMSKEDQKAQAHNSKSNDKKGSTDAIVKFVLEGHDRGVNWCAFHPTLPLILSAGDDRLVKLWRMTASKAWEVDTCRGHFNNVSCCLFHPHQELILSASEDKTIRVWDLNRRTAVQTFRRDNDRFWFITVHPKLNLFAAAHDSGVMVFKLE
For B1, in test [2], the koff is 0.145 s⁻¹ and 0.25 s⁻¹; the kon is 152000 M⁻¹ s⁻¹ and 90000 M⁻¹ s⁻¹.
